{"source": "the NIST ThermoML archive (doi:10.1016/j.fluid.2013.02.008)", "assay": "activity coefficient (dimensionless); of the first substance listed, at infinite dilution; xn = mol fraction of the nth substance listed", "conditions": "Liquid, Chromatography, x1 = 0", "note": "± gives the expanded uncertainty stated by the source."}
{"smiles": "CCCCCCCC", "note": "[octane] + CCCCCCCCCCO", "values": [{"measurement": "activity coefficient", "setting": "352.7 K, 101 kPa", "value": "2.44 ± 0.17"}, {"measurement": "activity coefficient", "setting": "372.2 K, 101 kPa", "value": "2.28 ± 0.16"}, {"measurement": "activity coefficient", "setting": "391.8 K, 101 kPa", "value": "2.15 ± 0.15"}]}
{"smiles": "CCCCCCCCCC", "note": "[decane] + CCCCCCCCCCCCCCO", "values": [{"measurement": "activity coefficient", "setting": "353 K, 101 kPa", "value": "2.1 ± 0.14"}, {"measurement": "activity coefficient", "setting": "372.4 K, 101 kPa", "value": "1.9 ± 0.13"}, {"measurement": "activity coefficient", "setting": "392 K, 101 kPa", "value": "1.79 ± 0.12"}, {"measurement": "activity coefficient", "setting": "430.3 K, 101 kPa", "value": "1.68 ± 0.11"}]}
{"smiles": "CCCCCCCC", "note": "[octane] + OCCCO", "values": [{"measurement": "activity coefficient", "setting": "312.1 K, 101 kPa", "value": "314 ± 22"}, {"measurement": "activity coefficient", "setting": "333.1 K, 101 kPa", "value": "283 ± 19"}, {"measurement": "activity coefficient", "setting": "352.1 K, 101 kPa", "value": "224 ± 15"}, {"measurement": "activity coefficient", "setting": "372.1 K, 101 kPa", "value": "187 ± 13"}, {"measurement": "activity coefficient", "setting": "391.1 K, 101 kPa", "value": "148 ± 10"}]}
{"smiles": "CCCCCC", "note": "[hexane] + CCCCCCCCCCCCCCO", "values": [{"measurement": "activity coefficient", "setting": "331.8 K, 101 kPa", "value": "1.69 ± 0.11"}, {"measurement": "activity coefficient", "setting": "353 K, 101 kPa", "value": "1.6 ± 0.11"}]}
{"smiles": "CCCCCCCCCC", "note": "[decane] + CCCCCCCCCCO", "values": [{"measurement": "activity coefficient", "setting": "352.8 K, 101 kPa", "value": "2.98 ± 0.2"}, {"measurement": "activity coefficient", "setting": "372.2 K, 101 kPa", "value": "2.73 ± 0.19"}, {"measurement": "activity coefficient", "setting": "391.6 K, 101 kPa", "value": "2.6 ± 0.18"}]}
{"smiles": "CCCCCC", "note": "[hexane] + CCCCCCCCCCCCO", "values": [{"measurement": "activity coefficient", "setting": "312.7 K, 101 kPa", "value": "2.03 ± 0.14"}, {"measurement": "activity coefficient", "setting": "332.1 K, 101 kPa", "value": "1.98 ± 0.13"}, {"measurement": "activity coefficient", "setting": "353.2 K, 101 kPa", "value": "1.86 ± 0.13"}]}
{"smiles": "CCCCCCCC", "note": "[octane] + OCCO", "values": [{"measurement": "activity coefficient", "setting": "332.1 K", "value": "631 ± 43"}, {"measurement": "activity coefficient", "setting": "353.6 K", "value": "447 ± 31"}, {"measurement": "activity coefficient", "setting": "372.7 K", "value": "383 ± 26"}, {"measurement": "activity coefficient", "setting": "392.4 K", "value": "313 ± 22"}]}
{"smiles": "CCCCCCCCCC", "note": "[decane] + OCCO", "values": [{"measurement": "activity coefficient", "setting": "359.5 K, 101 kPa", "value": "1680 ± 120"}, {"measurement": "activity coefficient", "setting": "373.1 K, 101 kPa", "value": "1210 ± 84"}, {"measurement": "activity coefficient", "setting": "392.4 K, 101 kPa", "value": "804 ± 55"}, {"measurement": "activity coefficient", "setting": "411.5 K, 101 kPa", "value": "557 ± 38"}, {"measurement": "activity coefficient", "setting": "431 K, 101 kPa", "value": "454 ± 31"}]}
{"smiles": "CCCCCC", "note": "[hexane] + CCCCCCCCCCO", "values": [{"measurement": "activity coefficient", "setting": "312.6 K, 101 kPa", "value": "2.21 ± 0.15"}, {"measurement": "activity coefficient", "setting": "331.7 K, 101 kPa", "value": "2.14 ± 0.15"}, {"measurement": "activity coefficient", "setting": "352.9 K, 101 kPa", "value": "2.02 ± 0.14"}]}
{"smiles": "CCCCCC", "note": "[hexane] + OCCO", "values": [{"measurement": "activity coefficient", "setting": "313.2 K, 101 kPa", "value": "97.8 ± 6.7"}, {"measurement": "activity coefficient", "setting": "332.1 K, 101 kPa", "value": "88.1 ± 6"}, {"measurement": "activity coefficient", "setting": "353.5 K, 101 kPa", "value": "80.6 ± 5.5"}]}
{"smiles": "CCCCCCCC", "note": "[octane] + CCCCCCCCCCCCO", "values": [{"measurement": "activity coefficient", "setting": "353.3 K, 101 kPa", "value": "2.29 ± 0.16"}, {"measurement": "activity coefficient", "setting": "362.6 K, 101 kPa", "value": "2.21 ± 0.15"}, {"measurement": "activity coefficient", "setting": "372.4 K, 101 kPa", "value": "2.16 ± 0.15"}, {"measurement": "activity coefficient", "setting": "383 K, 101 kPa", "value": "2.08 ± 0.14"}, {"measurement": "activity coefficient", "setting": "411.1 K, 101 kPa", "value": "1.9 ± 0.13"}, {"measurement": "activity coefficient", "setting": "430.6 K, 101 kPa", "value": "1.76 ± 0.12"}]}
{"smiles": "CCCCCCCCCC", "note": "[decane] + OCCCO", "values": [{"measurement": "activity coefficient", "setting": "312.1 K, 101 kPa", "value": "793 ± 55"}, {"measurement": "activity coefficient", "setting": "333.1 K, 101 kPa", "value": "589 ± 41"}, {"measurement": "activity coefficient", "setting": "352.1 K, 101 kPa", "value": "501 ± 34"}, {"measurement": "activity coefficient", "setting": "372.1 K, 101 kPa", "value": "464 ± 32"}, {"measurement": "activity coefficient", "setting": "391.1 K, 101 kPa", "value": "338 ± 23"}, {"measurement": "activity coefficient", "setting": "411.1 K, 101 kPa", "value": "256 ± 18"}]}
{"smiles": "CCCCCCCCCC", "note": "[decane] + CCCCCCCCCCCCO", "values": [{"measurement": "activity coefficient", "setting": "352.7 K, 101 kPa", "value": "3.46 ± 0.24"}, {"measurement": "activity coefficient", "setting": "362.5 K, 101 kPa", "value": "2.93 ± 0.2"}, {"measurement": "activity coefficient", "setting": "372.8 K, 101 kPa", "value": "2.67 ± 0.18"}, {"measurement": "activity coefficient", "setting": "382.9 K, 101 kPa", "value": "2.42 ± 0.16"}, {"measurement": "activity coefficient", "setting": "392 K, 101 kPa", "value": "2.31 ± 0.16"}, {"measurement": "activity coefficient", "setting": "410.9 K, 101 kPa", "value": "2.31 ± 0.16"}, {"measurement": "activity coefficient", "setting": "430.6 K, 101 kPa", "value": "2.18 ± 0.15"}]}
{"smiles": "CCCCCCCC", "note": "[octane] + CCCCCCCCCCCCCCO", "values": [{"measurement": "activity coefficient", "setting": "353 K, 101 kPa", "value": "1.87 ± 0.08"}, {"measurement": "activity coefficient", "setting": "372.4 K, 101 kPa", "value": "1.76 ± 0.07"}, {"measurement": "activity coefficient", "setting": "391.9 K, 101 kPa", "value": "1.69 ± 0.07"}, {"measurement": "activity coefficient", "setting": "410.6 K, 101 kPa", "value": "1.63 ± 0.07"}, {"measurement": "activity coefficient", "setting": "430.6 K, 101 kPa", "value": "1.61 ± 0.06"}]}
{"smiles": "CCCCCC", "note": "[hexane] + OCCCO", "values": [{"measurement": "activity coefficient", "setting": "312.1 K, 101 kPa", "value": "77.2 ± 5.3"}, {"measurement": "activity coefficient", "setting": "333.1 K, 101 kPa", "value": "72.9 ± 5"}, {"measurement": "activity coefficient", "setting": "352.1 K, 101 kPa", "value": "52.4 ± 3.6"}]}
